From PubChem BioAssay AID493130 (Broad Institute, 2011)
Inconclusive results are not listed. The source made the active and inactive calls.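 Rule for the calls: active = signal-lowering compounds whose fitted half-maximal concentration is at most ten times their highest tested dose; inconclusive = flat fit between -30 and -70%, or poor fit; inactive = flat within 30%, signal rising, or potency beyond limit.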

target: POS-1 (Caenorhabditis elegans) binding to mex-3 RNA; experiment: C. elegans POS-1 RNA interaction disruptors – biochemical, fluorescence polarization, cherry-picked samples, set 2, counter-screen for MEX-5 RNA-binding inhibitor project, dose response (AID 493130); conditions: POS-1/mex-3 RNA fluorescence polarization, 1 h;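 note: POS-1 as maltose binding protein fusion made in E. coli with FITC RNA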;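 for activity change, negative = inhibition: 0% = DMSO neutral wells and -100% = excess unlabeled mex3 competitor RNA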

| SMILES | AC50 [µM] |
| --- | --- |
| O=[N+]([O-])c1ccccc1NC(=S)N/N=C/c1ccc(O)c(O)c1 | 5.42 |
| Cc1c2ccccc2nc2c(F)c(NCCO)c(F)c(F)c12 | 0.854 |
| COc1ccccc1C(=O)Oc1ccc2c(c1)O/C(=C\c1ccncc1)C2=O | 3.41 |
| N#CC1(C#N)C(c2ccccc2)OC23CCCCC2C1(C#N)C(=N)O3 (centres undefined) | 4.61 |
| C#CCN1C(=O)S/C(=C\c2cc3c(cc2OC)OCO3)C1=O | 8.97 |
| Cc1cc(O)c(-c2cc(O)c(C)cc2O)cc1O | 10.1 |
| C=CCn1c(=O)[nH]c2nc3cc(N=CN(C)C)c(C)cc3nc2c1=O | 7.27 |
| Cc1oc2c(cc(NS(=O)(=O)c3ccc(C(C)C)cc3)c3ccccc32)c1C(=O)O | 10.4 |
| Cc1ccc(N2C(=O)NC(=O)/C(=C\c3ccc([N+](=O)[O-])o3)C2=O)cc1 | 7.36 |
| COC(=O)C1=COC(C)C2CN3CCc4c([nH]c5ccccc45)C3CC12 (centres undefined) | 7.17 |
| COc1ccc(NC(=O)c2cccc(-c3ccc(O)cc3)c2)cn1 | 3.93 |
| Cc1occc1C(=O)N/N=C/C1=C(N2CCOCC2)C(=C\c2ccc(Cl)cc2Cl)/CC1 | 8.21 |

same assay, conditions: POS-1/mex-3 RNA fluorescence polarization, 1 h; at 10 µM (top of the series)

| SMILES | activity change, negative = inhibition |
| --- | --- |
| Cn1c(O)c(/C=N/NC(=O)c2cc3ccccc3cc2O)c2ccccc21 | inactive |
| CCOC(=O)NNc1ccc2nonc2c1[N+](=O)[O-] | inactive |
| CCOc1ccc(/C=C2/C(=O)N(c3ccc(OC)cc3)C(=S)N2CC(=O)OC)cc1OCC | inactive |
| CCc1nnc(NS(=O)(=O)c2ccc(N=Cc3c(O)n(-c4ccc(Cl)cc4)c(=O)[nH]c3=O)cc2)s1 | inactive |
| Cc1cc(C)c2ccc(C(=O)O)nc2c1O | inactive |
| CCCCN(C(=O)c1ccc(C)o1)c1c(N)n(CCCC)c(=O)[nH]c1=O | inactive |
| COc1cc(/C=C2/C(C)=C(C#N)c3nc(N)c(C#N)c(C)c32)ccc1OCC(=O)O | inactive |
| COc1ccc(/C=C2\CCCc3c2nc2ccc(C)cc2c3C(=O)O)cc1O | inactive |
| COC(=O)/C(C#N)=C/c1c(-c2ccccc2)nc2n1CCS2 | inactive |
| O=C(CCCN1C(=O)/C(=C/c2ccccc2Cl)SC1=S)NNC(=O)c1ccc(Cl)cc1 | inactive |
| O=S1(=O)c2ccccc2N=NN1Cc1ccc(Cl)c(Cl)c1 | inactive |
| CC(C)(C)CC(C)(C)NCC(O)COc1ccc2c(c1)CCC2 (centres undefined) | inactive |
| O=[N+]([O-])c1ccc(/C=N/n2c(CO)nc3ccccc32)s1 | inactive |
| O=C(Nc1ccc(OCc2ccccc2)cc1)Nc1cccnc1 | inactive |
| O=c1[nH]cnc2c1C(c1ccc(Cl)cc1)c1c(nc[nH]c1=O)O2 | inactive |
| CC1CN2C(c3ccc(Cl)cc3)=CSC2=N1 (centres undefined) | inactive |
| O=C1OC2(CCCC2)OC(=O)C1=Cc1c[nH]c2ccccc12 | inactive |
| O=C(NC1CCSc2ccccc21)c1cccc(Br)c1 (centres undefined) | inactive |
| CCc1ccc(/C=C2/C(=O)N(CC)C(=S)N2C)s1 | inactive |

| SMILES | activity change, negative = inhibition |
| --- | --- |
| Cn1c(C2=C(O)CN(c3ccccc3)C2=N)nc2ccccc21 | inactive |
| O=C1/C(=C\c2ccc(Br)o2)Cc2ccccc21 | inactive |
| CCN(CC)c1ccc(N2C(=O)c3ccccc3C2=O)cc1 | inactive |
| COC(=O)c1cc2c(-c3ccccc3)cc3ccccn3c-2c1C(=O)OC | inactive |
| CC(C)(C)OC(=O)NCCCC1=CC2=CC(=O)C(C)(O)C(=O)C2=CO1 (centres undefined) | inactive |
| CC(=O)c1cc(NC(=O)c2ccc(C)cc2)c(=O)oc1C | inactive |
| Cc1nn(C(C)C(=O)NNC(=S)Nc2ccc(Cl)cc2)c(C)c1[N+](=O)[O-] (centres undefined) | inactive |
| O=C(O)c1ccccc1N=Nc1c(O)[nH]c2ccc([N+](=O)[O-])cc12 | inactive |
| Cc1cc(=O)n2[nH]c(N)c(N=Nc3ccccc3F)c2n1 | inactive |
| COc1ccc(NC(=S)NNC(=O)C(C)n2nc(C)c([N+](=O)[O-])c2C)cc1 (centres undefined) | inactive |
| CC1=C(C(=O)OCc2ccccc2)C(c2cccc([N+](=O)[O-])c2)NC(=O)N1C (centres undefined) | inactive |
| CC(=Nc1ccc(C)cc1)c1sc2ccccc2c1O | inactive |
| Oc1[nH]c(N=C2N=c3ccccc3=N2)c2ccccc12 | inactive |
| Cc1ccc(S(=O)(=O)N/N=C/c2ccc(O)c(O)c2)cc1[N+](=O)[O-] | inactive |
| Nc1cc(C(=O)O)c(Oc2ccc(Cl)cc2Cl)cc1C(=O)O | inactive |
| Oc1sc(C=Nc2ccc(F)cc2)c2ccccc12 | inactive |
| COc1cccc(NC(=S)NNC(=O)C(C)n2nc(C)c([N+](=O)[O-])c2C)c1 (centres undefined) | inactive |
| COc1cc(CCC(=O)Nc2ccc(Cl)c(C(F)(F)F)c2)cc(OC)c1OC | inactive |
| Cc1ccc2c(c1)c(C1=NC(=S)NC1=O)c(O)n2C | inactive |

| SMILES | activity change, negative = inhibition |
| --- | --- |
| CSCCCN1CCC(n2nccc2NC(=O)CCCc2ccccc2)CC1 | inactive |
| Cc1cccc(C(=O)NNC(=O)c2csc(N3CCOCC3)n2)c1C | inactive |
| CN1C(=O)NC(c2ccccc2Cl)C2=C1CC(C)(C)CC2=O (centres undefined) | inactive |
| Cc1ccc(N/N=C(\C#N)C(=O)c2ccsc2)cc1 | inactive |
| CC1=CC2=NC(=O)/C(=C\c3ccc(-c4cccc(Cl)c4)o3)C(=N)N2O1 | inactive |
| CCOC(=O)Cc1csc(NC(=O)c2sc3nc4c(C)cc(C)cc4cc3c2N)n1 | inactive |
| CC1(C)CC(=O)C2=C(C1)Nc1cc(Cl)ccc1S2 | inactive |
| CCc1ccc(N2C(=O)NC(=O)/C(=C\c3cccn3CCOc3ccc(C(C)C)cc3)C2=O)cc1 | inactive |
| Nc1c(C(=O)Nc2ccccc2F)sc2nc(-c3cccnc3)ccc12 | inactive |
| Cc1cccc(C(=O)NNC(=O)c2ccco2)c1O | inactive |
| CC(=O)NN1C(=O)/C(=C2/Sc3ccccc3N2C)SC1=S | inactive |
| COC(=O)CCC(=O)NC(=S)Nc1sc(C)c(C)c1C(N)=O | inactive |
| CN1CCc2c(sc(NC(=O)c3ccc(S(=O)(=O)N4CCCCCC4)cc3)c2C(N)=O)C1 | inactive |
| Cc1ccc(S(=O)(=O)c2cc3c(=O)n4ccccc4nc3n(C)c2=N)cc1 | inactive |
| CN1CCCc2cc(C=O)ccc21 | inactive |
| CC(=O)Nc1ccc(/C=N\NC(=O)CNS(=O)(=O)c2ccc([N+](=O)[O-])cc2)cc1 | inactive |
| O=C(Nc1nccs1)c1ccc(-c2ccc(Cl)cc2)o1 | inactive |
| CC(C)CNC(=O)c1ccccc1Oc1ccccc1 | inactive |
| O=C1NC(=O)N(Cc2ccccc2)C(=O)/C1=C\c1ccco1 | inactive |
